Experimental data reported in publication PMC9445029, “A Cryptochrome adopts distinct moon- and sunlight states and functions as sun- versus moonlight interpreter in monthly oscillator entrainment” (Nature Communications, 2022).

What was measured:
[1] = target: T1, L-Cry (Pdu-L-Cry) (Platynereis dumerilii, UniProt Z9ZPX6J9J5); experiment: RP-HPLC of chromophore released from purified protein; UV/Vis spectroscopy; format: binding; settings: co-purified from Sf9 cells; dark state oxidized FAD (maxima 450 and 475 nm), photoreduced to anionic radical; pH 8.0, 1 mM TCEP
T1 sequence (Z9ZPX6J9J5 1-565): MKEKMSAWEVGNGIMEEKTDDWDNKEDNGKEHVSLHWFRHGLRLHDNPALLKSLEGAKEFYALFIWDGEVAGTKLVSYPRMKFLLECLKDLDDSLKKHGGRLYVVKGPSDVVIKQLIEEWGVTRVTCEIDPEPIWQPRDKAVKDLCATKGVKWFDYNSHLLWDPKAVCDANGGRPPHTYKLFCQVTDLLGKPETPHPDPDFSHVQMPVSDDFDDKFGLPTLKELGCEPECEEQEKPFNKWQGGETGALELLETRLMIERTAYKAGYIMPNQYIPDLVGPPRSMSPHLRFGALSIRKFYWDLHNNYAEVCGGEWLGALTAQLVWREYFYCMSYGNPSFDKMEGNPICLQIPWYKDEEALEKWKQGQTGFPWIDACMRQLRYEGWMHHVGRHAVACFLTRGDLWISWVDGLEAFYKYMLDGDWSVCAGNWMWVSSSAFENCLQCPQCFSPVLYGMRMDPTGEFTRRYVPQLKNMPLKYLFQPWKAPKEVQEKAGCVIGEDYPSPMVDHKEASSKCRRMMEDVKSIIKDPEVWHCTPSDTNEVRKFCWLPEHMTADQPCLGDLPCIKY

[2] = target: Platynereis dumerilii L-Cryptochrome (L-Cry), full length, N-terminally His6-tagged (1-567) (Platynereis dumerilii); experiment: SEC-MALS; purified dark-state L-Cry on a Superose 6 10/300 column, 0.4 ml/min, SEC buffer 25 mM Bis-Tris propane pH 8.0, 150 mM NaCl; molar mass about 130 kDa against 65.6 kDa for the monomer

Compound	RP-HPLC of chromophore released from purified protein; UV/Vis spectroscopy [1]	stoichiometry N [2]
Cc1cc2nc3c(=O)[nH]c(=O)nc-3n(C[C@H](O)[C@H](O)[C@H](O)COP(=O)(O)OP(=O)(O)OC[C@H]3O[C@@H](n4cnc5c(N)ncnc54)[C@H](O)[C@@H]3O)c2cc1C [Flavin Adenine Dinucleotide]	purified L-Cry binds Flavin Adenine Dinucleotide (FAD) as its chromophore	–
Platynereis dumerilii L-Cryptochrome (L-Cry), full length, N-terminally His6-tagged (1-567) (natural protein)	–	2
